Where two headings read alike, the source gives them in different places.
How the values were obtained:
[1] = biological target: T1, VCAM-1 binding to α4β7-negative Th memory cells (Homo sapiens, UniProt P05556+P13612); experiment: VCAM-1 competition / receptor occupancy assay in human whole blood, α4β7-negative Th memory cells; type: cell-based
T1 construct: endogenous in cells
Experimental: Analyte Competition Assay in CD4+ Integrin α4+β7-Lo Memory T Cells
Receptor occupancy in primary cells was determined by measuring the amount of biotinylated human recombinant MAdCAM-1-FC or human recombinant VCAM-1-Fc bound to selected cell populations using flow cytometry. Human recombinant MAdCAM-1-FC or human recombinant VCAM-1-FC (R&D systems) were biotinylated using commercially available reagents and protocol (Pierce).
Whole blood was collected from human donors in sodium heparin tubes. A volume of 100 microL of blood was incubated with compound and 4 mM MnCL2 for 1 hour at room temperature. Cells were washed twice with 1 mL of 1X DPBS calcium magnesium free (CMF) (ThermoFisher Scientific) and resuspended in 100 microL of DPBS CMF.
Biotinylated human recombinant MAdCAM-1-Fc or VCAM-1-Fc were added at saturating concentration and incubated at room temperature for 1 hour. A volume of 2 mL of 1X BD FACS Lyse (BD Biosciences) was then added and the mixture was incubated for 8-12 minutes at room temperature in the dark to lyse red blood cells. Cells were washed with 1 mL stain buffer-FBS (BD Biosciences) and resuspended in 100 μl stain Buffer-FBS (BD Biosciences) containing 4 mM MnCl2. Biotinylated-rhMAdCAM-1 was applied at a saturating concentration of 1200 ng/mL to compete with test article binding and incubated at room temperature for 1 hour. Cells were then washed with 1 mL stain buffer-FBS and resuspended in […] stain buffer-FBS. The cells were incubated in the dark for 30 minutes at room temperature with 1 ul Streptavidin APC (Biolegend 0.2 mg/ml) and a panel of antibodies for the detection of memory T helper a4b7-positive cells subset. And amount of 5.0 ul each of the following antibodies were used; CD45 FITC (BioLegend 200 ug/ml), CD29 APC Cy7 (BioLegend 100 ug/ml), Integrin beta7 PE, (BioLegend concentration 50 μg/mL), CD49d V421 (BioLegend 50 μg/mL), CD3 V510 (BioLegend 30 μg/mL), CD4 PECy7 (BioLegend 100 μg/mL), CD45RO PerCP, BioLegend 200 μg/mL). The cells were then washed with stain-buffer-FBS and resuspended in 150 microL stain buffer-FBS for acquisition on the flow cytometer (BD FACSCanto™ flow cytometer and BDFACSDiva™ software). FACS data was acquire by electronic gating on the basis of forward versus side scatter, The cytometer was set to collect 20,000 events in each tube. Cell population were determined using the following markers, CD45+, CD3+, CD4+, CD45RO+, CD49d+, integrin b7, biotinylated ligands.
Compound receptor occupancy was defined as the decrease in the number of integrin β7+ or integrin β7-lo cells binding biotinylated rhMAdCAM-1 or rhVCAM-1, respectively.
(§1) Receptor occupancy was calculated with the following equation: 100−((% ligand-positive cells with compound/% ligand-positive cells DMSO)*100) In Vivo T Lymphocyte Trafficking Analysis in Mouse Model of Colitis

[2] = system: α4β7+ T helper memory lymphocytes in mesenteric lymph nodes; experiment: In vivo T lymphocyte trafficking analysis in DSS mouse model of colitis; conditions: DSS-treated mice
Experimental: as §1
Animal care: The animal care facility employed is accredited by the Canadian Council on Animal Care (CCAC). This study was approved by a certified Animal Care Committee and complied with CACC standards and regulations governing the use of animals for research. The animals were housed under standardized environmental conditions. A standard certified commercial rodent diet was provided ad libitum. Tap water was provided ad libitum at all times.
Dextran sulfate sodium (DSS) was administered to C57Bl/6 female mice for five days through addition to their drinking water at 3%. Body weight and disease activity index (“DAI”) were measured on Day 5 in order to distribute DSS-treated animals in uniform groups prior to dosing. DAI was scored based on the severity three specific symptoms associated with colitis: 1—blood in stool (negative hemoccult, positive hemoccult, blood traces in stool visible, rectal bleeding); 2—stool consistency (normal, soft but still formed, very soft, diarrhea); 3—body weight loss. […]
Statistical analysis was performed using GraphPad Prism. Differences among groups were evaluated by two-way ANOVA, with a 95% confidence interval.

[3] = human whole blood, inhibition of VCAM binding to α4β7-negative Th memory cells, FACS, read-out: VCAM FACS α4+β7− Th mem

T1 sequence (P13612 34-1032): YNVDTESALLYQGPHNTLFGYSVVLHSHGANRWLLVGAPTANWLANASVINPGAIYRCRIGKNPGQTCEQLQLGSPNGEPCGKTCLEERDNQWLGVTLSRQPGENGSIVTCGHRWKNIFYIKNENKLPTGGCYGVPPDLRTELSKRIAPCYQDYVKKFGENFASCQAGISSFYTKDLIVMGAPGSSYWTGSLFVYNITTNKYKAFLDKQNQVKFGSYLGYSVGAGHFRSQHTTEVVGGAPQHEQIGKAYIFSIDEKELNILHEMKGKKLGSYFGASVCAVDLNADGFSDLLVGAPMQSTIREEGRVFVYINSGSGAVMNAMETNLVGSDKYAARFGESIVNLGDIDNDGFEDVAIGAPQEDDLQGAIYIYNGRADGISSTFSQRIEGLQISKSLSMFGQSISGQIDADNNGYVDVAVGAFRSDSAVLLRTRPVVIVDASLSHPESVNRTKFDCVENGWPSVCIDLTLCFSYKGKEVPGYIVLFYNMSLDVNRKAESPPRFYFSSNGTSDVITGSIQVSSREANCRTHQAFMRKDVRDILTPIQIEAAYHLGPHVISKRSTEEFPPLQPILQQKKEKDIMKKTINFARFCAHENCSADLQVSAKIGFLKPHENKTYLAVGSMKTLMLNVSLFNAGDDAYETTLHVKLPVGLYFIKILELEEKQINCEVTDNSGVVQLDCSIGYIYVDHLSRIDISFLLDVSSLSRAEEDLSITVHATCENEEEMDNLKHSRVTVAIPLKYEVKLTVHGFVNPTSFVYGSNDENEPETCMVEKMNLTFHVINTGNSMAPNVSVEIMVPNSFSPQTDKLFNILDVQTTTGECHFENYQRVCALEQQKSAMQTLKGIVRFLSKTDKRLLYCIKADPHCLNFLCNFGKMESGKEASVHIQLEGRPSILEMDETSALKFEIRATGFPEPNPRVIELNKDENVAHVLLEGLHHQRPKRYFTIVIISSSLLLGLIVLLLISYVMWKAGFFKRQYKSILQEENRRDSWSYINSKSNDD
T1 sequence (P05556 21-798): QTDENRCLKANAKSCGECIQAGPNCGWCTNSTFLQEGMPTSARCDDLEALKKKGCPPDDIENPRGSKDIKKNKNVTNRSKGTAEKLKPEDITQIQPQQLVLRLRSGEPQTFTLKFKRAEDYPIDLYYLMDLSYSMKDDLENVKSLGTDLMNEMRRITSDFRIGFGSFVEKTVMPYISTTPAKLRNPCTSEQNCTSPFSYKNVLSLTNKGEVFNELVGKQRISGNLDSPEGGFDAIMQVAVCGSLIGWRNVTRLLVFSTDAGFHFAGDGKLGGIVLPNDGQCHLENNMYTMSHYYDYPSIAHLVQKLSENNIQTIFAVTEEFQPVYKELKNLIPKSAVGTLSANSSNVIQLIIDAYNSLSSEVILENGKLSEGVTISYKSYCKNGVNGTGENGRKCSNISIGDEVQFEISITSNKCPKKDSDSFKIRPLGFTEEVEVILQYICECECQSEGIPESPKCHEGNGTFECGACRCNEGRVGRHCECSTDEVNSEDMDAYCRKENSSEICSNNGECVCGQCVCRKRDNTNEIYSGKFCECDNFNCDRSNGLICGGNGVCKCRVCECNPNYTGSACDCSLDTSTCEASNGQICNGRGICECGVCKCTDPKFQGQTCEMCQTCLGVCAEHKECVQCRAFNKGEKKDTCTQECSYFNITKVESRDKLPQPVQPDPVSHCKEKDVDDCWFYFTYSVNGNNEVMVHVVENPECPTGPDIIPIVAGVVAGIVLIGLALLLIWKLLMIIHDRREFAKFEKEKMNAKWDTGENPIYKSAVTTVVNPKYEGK

| Compound | IC50 [1, 3] [µM] | reduction of the number of α4β7+ positive lymphocytes in mesenteric lymph nodes ([2]; 80 mg/kg orally daily days 6 to 9) [%] | reduction in α4β7+ T helper memory lymphocytes in mesenteric lymph nodes, dose dependence ([2]; FIG. 9) | IC50 ([1]; whole blood from a single donor, FIG. 11, up to 4000 nM, read-out: IC50, VCAM binding) [µM] |
| --- | --- | --- | --- | --- |
| CC(C)C[C@@H]1NC(=O)c2ccc(-c3ccc(N4CCN(CCC(=O)N5CCN(c6ccc(-c7ccc8cc7CNC(=O)[C@@H]7CCCN7[C@H](C(=O)NC(C)(C)C)[C@H](C)NC(=O)[C@H]([C@@H](C)O)NC(=O)[C@H](CC(=O)O)NC(=O)[C@H](CC(C)C)NC8=O)cc6)CC5)CC4)cc3)c(c2)CNC(=O)[C@@H]2CCCN2[C@H](C(=O)NC(C)(C)C)[C@H](C)NC(=O)[C@H]([C@@H](C)O)NC(=O)[C@H](CC(=O)O)NC1=O [Compound 482] | ≥ 4 | – | – | – |
| CC(C)C[C@@H]1NC(=O)c2ccc(-c3ccc(N4CCN(C(=O)CCOCCOCCOCCOCCOCCOCCOCCOCCOCCOCCC(=O)N5CCN(c6ccc(-c7ccc8cc7CNC(=O)[C@@H]7CCCN7[C@H](C(=O)NC(C)(C)C)[C@H](C)NC(=O)[C@H]([C@@H](C)O)NC(=O)[C@H](CC(=O)O)NC(=O)[C@H](CC(C)C)NC8=O)cc6)CC5)CC4)cc3)c(c2)CNC(=O)[C@@H]2CCCN2[C@H](C(=O)NC(C)(C)C)[C@H](C)NC(=O)[C@H]([C@@H](C)O)NC(=O)[C@H](CC(=O)O)NC1=O [Compound 511] | 20 | – | – | – |
| CC(C)C[C@@H]1NC(=O)c2ccc(-c3ccc(N4CCN(C(=O)c5ccccc5-c5ccccc5C(=O)N5CCN(c6ccc(-c7ccc8cc7CNC(=O)[C@@H]7CCCN7[C@H](C(=O)NC(C)(C)C)[C@H](C)NC(=O)[C@H]([C@@H](C)O)NC(=O)[C@H](CC(=O)O)NC(=O)[C@H](CC(C)C)NC8=O)cc6)CC5)CC4)cc3)c(c2)CNC(=O)[C@@H]2CCCN2[C@H](C(=O)NC(C)(C)C)[C@H](C)NC(=O)[C@H]([C@@H](C)O)NC(=O)[C@H](CC(=O)O)NC1=O [Compound 517] | 0.607 | 60 | dose-dependent reduction | – |
| CC(C)C[C@@H]1NC(=O)C[C@H](CCCCN)N(C)C(=O)[C@H](CCCCNC(=O)CCCCCCCCC(=O)NCCCC[C@@H]2NC(=O)[C@@H]3CCCN3[C@H](C(=O)NC(C)(C)C)[C@H](C)NC(=O)[C@H]([C@@H](C)O)NC(=O)[C@H](CC(=O)O)NC(=O)[C@H](CC(C)C)NC(=O)C[C@H](CCCCN)N(C)C2=O)NC(=O)[C@@H]2CCCN2[C@H](C(=O)NC(C)(C)C)[C@H](C)NC(=O)[C@H]([C@@H](C)O)NC(=O)[C@H](CC(=O)O)NC1=O [Compound 530] | > 4 | – | – | ≥ 0.6 |
